Measured values reported in patent publication US8889591B2, “Herbicidal compositions comprising 4-amino-3-chloro-5-fluoro-6-(4-chloro-2-fluoro-3-methoxyphenyl)pyridine-2-carboxylic acid or a derivative thereof and bromobutide, daimuron, oxaziclomefone or pyributicarb” (Dow Agrosciences LLC, priority 2012, dated 2014).

Tested on: ECHOR
Assay: In-water applied greenhouse weed control, transplanted paddy rice system
Type: in vivo, Echinochloa oryzoides (Ard.) Fritsch
Settings: in-water application
Protocol: Weed seeds or nutlets of the desired test plant species were planted in puddled soil (mud) prepared by mixing a shredded, non-sterilized mineral soil (50.5 percent silt, 25.5 percent clay, and 24 percent sand, with a pH of about 7.6 and an organic matter content of about 2.9 percent) and water at a 1:1 volumetric ratio. The prepared mud was dispensed in 365 mL aliquots into 16-ounce (oz.) non-perforated plastic pots with a surface area of 86.59 square centimeters (cm^2) leaving a headspace of 3 centimeters (cm) in each pot. Mud was allowed to dry overnight prior to planting or transplanting. Rice seeds were planted in Sun Gro MetroMix® 306 planting mixture, which typically has a pH of 6.0 to 6.8 and an organic matter content of about 30 percent, in plastic plug trays. Seedlings at the second or third leaf stage of growth were transplanted into 840 mL of mud contained in 32-oz. non-perforated plastic pots with a surface area of 86.59 cm^2 4 days prior to herbicide application. The paddy was created by filling the headspace of the pots with 2.5 to 3 cm of water. When required to ensure good germination and healthy plants, a fungicide treatment and/or other chemical or physical treatment was applied. The plants were grown for 4-22 days in a greenhouse with an approximate 14 h photoperiod which was maintained at about 29° C. during the day and 26° C. during the night. Nutrients were added as Osmocote® (19:6:12, N:P:K+ minor nutrients) at 2 g per 16-oz. pot and 4 g per 32-oz. pot. Water was added on a regular basis to maintain the paddy flood, and supplemental lighting was provided with overhead metal halide 1000-Watt lamps as necessary. The plants were employed for testing when they reached the first through fourth true leaf stage.
Treatments consisted of the acid or esters of 4-amino-3-chloro-5-fluoro-6-(4-chloro-2-fluoro-3-methoxy-phenyl)pyridine-2-carboxylic acid (compound A) each formulated as an SC and various herbicidal components alone and in combination. Forms of compound A were applied on an acid equivalent basis.
Other herbicidal components were applied on an active ingredient basis and included daimuron formulated as an EC, bromobutide (technical grade material), and oxaziclomefone (technical grade material).
Treatment requirements for each compound or herbicidal component were calculated based upon the rates being tested, the concentration of active ingredient or acid equivalent in the formulation, an application volume of 2 mL per component per pot, and an application area of 86.59 cm^2 per pot.
For formulated compounds, a measured amount was placed in an individual 100 or 200 mL glass vial and was dissolved in a volume of 1.25% (v/v) Agri-Dex® crop oil concentrate to obtain application solutions.
For technical grade compounds, a weighed amount was placed in an individual 100 to 200 mL glass vial and was dissolved in a volume of acetone to obtain concentrated stock solutions. […] The concentrated stock solutions obtained were diluted with an equivalent volume of an aqueous mixture containing 2.5% (v/v) crop oil concentrate so that the final application solutions contained 1.25% (v/v) crop oil concentrate.
Applications were made by injecting, with a pipetter, appropriate amounts of the application solutions, individually and sequentially, into the aqueous layer of the paddy. Control plants were treated in the same manner with the solvent blank. Applications were made so that all treated plant material received the same concentrations of acetone and crop oil concentrate.
The treated plants and control plants were placed in a greenhouse as described above and water was added as needed to maintain a paddy flood. After approximately 3 weeks the condition of the test plants as compared with that of the untreated plants was determined visually and scored on a scale of 0 to 100 percent where 0 corresponds to no injury or growth inhibition and 100 corresponds to complete kill. […]

COc1c(Cl)ccc(-c2nc(C(=O)OCc3ccccc3)c(Cl)c(N)c2F)c1F [Compound A Benzyl Ester]
Visual Weed Control (%) - 21 DAA ECHOR Obs (Compound A Benzyl Ester 8 gae/ha alone): 8% | Visual Weed Control (%) - 21 DAA ECHOR Obs (Compound A Benzyl Ester 16 gae/ha alone): 5% | Visual Weed Control (%) - 21 DAA ECHOR Obs (Compound A Benzyl Ester 32 gae/ha alone): 13%
